Source: patent US20260217701A1, “SELECTIVE BET INHIBITORS AND USES THEREOF” (Tay Therapeutics Limited, priority 2022, published 2026)
Several values for one entry are separate records, joined by “and”; a condition that tells them apart may be missing. Equal values may be shown once.

Tested on: collagen-induced arthritis
Assay: Collagen-induced arthritis (CIA) model: clinical scores and paw volume
Type: in vivo, Lewis rats
Conditions: for Percent Inhibition in clinical score (Mean ± SD) / Percent Inhibition in paw volume (Mean ± SD): CIA rats; for Overall Clinical Score: individual animals 1-8
[1] = Day 0, L paw, group 5 CIA + Compound A 1 mg/kg
[2] = Day 0, L paw, group 6 CIA + Compound A 3 mg/kg
[3] = Day 0, L paw, group 7 CIA + Compound A 10 mg/kg
[4] = Day 0, R paw, group 5 CIA + Compound A 1 mg/kg
[5] = Day 0, R paw, group 6 CIA + Compound A 3 mg/kg
[6] = Day 0, R paw, group 7 CIA + Compound A 10 mg/kg
[7] = Day 0, CIA + Compound A 1 mg/kg
[8] = Day 0, CIA + Compound A 3 mg/kg
[9] = Day 0, CIA + Compound A 10 mg/kg
[10] = Day 6, L paw, group 5 CIA + Compound A 1 mg/kg
[11] = Day 6, L paw, group 6 CIA + Compound A 3 mg/kg
[12] = Day 6, L paw, group 7 CIA + Compound A 10 mg/kg
[13] = Day 6, R paw, group 5 CIA + Compound A 1 mg/kg
[14] = Day 6, R paw, group 6 CIA + Compound A 3 mg/kg
[15] = Day 6, R paw, group 7 CIA + Compound A 10 mg/kg
[16] = Day 6, CIA + Compound A 1 mg/kg
[17] = Day 6, CIA + Compound A 3 mg/kg
[18] = Day 6, CIA + Compound A 10 mg/kg
[19] = Day 12, L paw, group 5 CIA + Compound A 1 mg/kg
[20] = Day 12, L paw, group 6 CIA + Compound A 3 mg/kg
[21] = Day 12, L paw, group 7 CIA + Compound A 10 mg/kg
[22] = Day 12, R paw, group 5 CIA + Compound A 1 mg/kg
[23] = Day 12, R paw, group 6 CIA + Compound A 3 mg/kg
[24] = Day 12, R paw, group 7 CIA + Compound A 10 mg/kg
[25] = Day 12, CIA + Compound A 1 mg/kg
[26] = Day 12, CIA + Compound A 3 mg/kg

Cn1cc(-c2ccccc2)c(-c2cn(C)c(=O)c3[nH]c(-c4cnn(C(F)(F)F)c4)cc23)cc1=O [Compound A, 6-methyl-4-(1-methyl-2-oxo-5-phenyl-1,2-dihydropyridin-4-yl)-2-(1-(trifluoromethyl)-1H-pyrazol-4-yl)-1,6-dihydro-7H-pyrrolo[2,3-c]pyridin-7-one]
Reduction in clinical score compared to CIA+placebo (10 mg/kg PO QD, Day 21): > 70%
Reduction in paw volume compared to CIA+placebo (10 mg/kg PO QD, Day 21): > 70%
Anti-inflammatory activity versus CIA placebo and CIA+10 mg/kg GSK620 (1, 3, and 10 mg/kg): superior (statistically)
Percent Inhibition in clinical score (Mean ± SD) (1 mg/kg): 60 ± 21%
Percent Inhibition in paw volume (Mean ± SD) (1 mg/kg): 58 ± 23%
Percent Inhibition in clinical score (Mean ± SD) (3 mg/kg): 70 ± 8%
Percent Inhibition in paw volume (Mean ± SD) (3 mg/kg): 75 ± 12%
Average animal paw volume [1]: 1.33 mL
Average animal paw volume percent change (%) [1]: 0.00%
Average animal paw volume [2]: 1.32 mL
Average animal paw volume percent change (%) [2]: 0.00%
Average animal paw volume [3]: 1.32 mL
Average animal paw volume percent change (%) [3]: 0.00%
Average animal paw volume [4]: 1.33 mL
Average animal paw volume percent change (%) [4]: 0.00%
Average animal paw volume [5]: 1.31 mL
Average animal paw volume percent change (%) [5]: 0.00%
Average animal paw volume [6]: 1.31 mL
Average animal paw volume percent change (%) [6]: 0.00%
Average detailed clinical score, left forelimb [7]: 0.00
Average detailed clinical score, left hind limb [7]: 0.00
Average detailed clinical score, right forelimb [7]: 0.00
Average detailed clinical score, right hind limb [7]: 0.00
Average detailed clinical score, score [7]: 0.00
Average overall clinical score [7]: 0
Overall Clinical Score [7]: 0
Average detailed clinical score, left forelimb [8]: 0.00
Average detailed clinical score, left hind limb [8]: 0.00
Average detailed clinical score, right forelimb [8]: 0.00
Average detailed clinical score, right hind limb [8]: 0.00
Average detailed clinical score, score [8]: 0.00
Average overall clinical score [8]: 0
Overall Clinical Score [8]: 0
Average detailed clinical score, left forelimb [9]: 0.00
Average detailed clinical score, left hind limb [9]: 0.00
Average detailed clinical score, right forelimb [9]: 0.00
Average detailed clinical score, right hind limb [9]: 0.00
Average detailed clinical score, score [9]: 0.00
Average overall clinical score [9]: 0
Average animal paw volume [10]: 1.35 mL
Average animal paw volume percent change (%) [10]: 1.60%
Average animal paw volume [11]: 1.34 mL
Average animal paw volume percent change (%) [11]: 1.44%
Average animal paw volume [12]: 1.34 mL
Average animal paw volume percent change (%) [12]: 1.64%
Average animal paw volume [13]: 1.35 mL
Average animal paw volume percent change (%) [13]: 1.41%
Average animal paw volume [14]: 1.34 mL
Average animal paw volume percent change (%) [14]: 1.63%
Average animal paw volume [15]: 1.33 mL
Average animal paw volume percent change (%) [15]: 1.59%
Average detailed clinical score, left forelimb [16]: 0.00
Average detailed clinical score, left hind limb [16]: 0.00
Average detailed clinical score, right forelimb [16]: 0.00
Average detailed clinical score, right hind limb [16]: 0.00
Average detailed clinical score, score [16]: 0.00
Average overall clinical score [16]: 0
Overall Clinical Score [16]: 0
Average detailed clinical score, left forelimb [17]: 0.00
Average detailed clinical score, left hind limb [17]: 0.00
Average detailed clinical score, right forelimb [17]: 0.00
Average detailed clinical score, right hind limb [17]: 0.00
Average detailed clinical score, score [17]: 0.00
Average overall clinical score [17]: 0
Overall Clinical Score [17]: 0
Average detailed clinical score, left forelimb [18]: 0.00
Average detailed clinical score, left hind limb [18]: 0.00
Average detailed clinical score, right forelimb [18]: 0.00
Average detailed clinical score, right hind limb [18]: 0.00
Average detailed clinical score, score [18]: 0.00
Average overall clinical score [18]: 0
Average animal paw volume [19]: 1.38 mL
Average animal paw volume percent change (%) [19]: 4.24%
Average animal paw volume [20]: 1.37 mL
Average animal paw volume percent change (%) [20]: 4.35%
Average animal paw volume [21]: 1.36 mL
Average animal paw volume percent change (%) [21]: 3.32%
Average animal paw volume [22]: 1.42 mL
Average animal paw volume percent change (%) [22]: 6.44%
Average animal paw volume [23]: 1.36 mL
Average animal paw volume percent change (%) [23]: 3.50%
Average animal paw volume [24]: 1.37 mL
Average animal paw volume percent change (%) [24]: 4.40%
Average detailed clinical score, left forelimb [25]: 0.00
Average detailed clinical score, left hind limb [25]: 0.13
Average detailed clinical score, right forelimb [25]: 0.25
Average detailed clinical score, right hind limb [25]: 0.00
Average detailed clinical score, score [25]: 0.38
Average overall clinical score [25]: 0
Overall Clinical Score (Day 12, CIA + Compound A 1 mg/kg, 1 mg/kg): 0 (7×) and 1
Average detailed clinical score, left forelimb [26]: 0.00
Average detailed clinical score, left hind limb [26]: 0.25
Average detailed clinical score, right forelimb [26]: 0.00
Average detailed clinical score, right hind limb [26]: 0.25
Average detailed clinical score, score [26]: 0.50
Average overall clinical score [26]: 0
Overall Clinical Score (Day 12, CIA + Compound A 3 mg/kg, 3 mg/kg): 0
